Assay results from patent US20190336490A1, “COMPOSITIONS AND METHODS FOR INCREASING REMYELINATION” (Frequency Therapeutics, Inc., priority 2018, published 2019).

Columns and labels:
muscarinic M1 receptor = biological target: T1, muscarinic M1 receptor (Homo sapiens, UniProt P11229); details: cited from earlier work
T1 sequence (P11229 1-460): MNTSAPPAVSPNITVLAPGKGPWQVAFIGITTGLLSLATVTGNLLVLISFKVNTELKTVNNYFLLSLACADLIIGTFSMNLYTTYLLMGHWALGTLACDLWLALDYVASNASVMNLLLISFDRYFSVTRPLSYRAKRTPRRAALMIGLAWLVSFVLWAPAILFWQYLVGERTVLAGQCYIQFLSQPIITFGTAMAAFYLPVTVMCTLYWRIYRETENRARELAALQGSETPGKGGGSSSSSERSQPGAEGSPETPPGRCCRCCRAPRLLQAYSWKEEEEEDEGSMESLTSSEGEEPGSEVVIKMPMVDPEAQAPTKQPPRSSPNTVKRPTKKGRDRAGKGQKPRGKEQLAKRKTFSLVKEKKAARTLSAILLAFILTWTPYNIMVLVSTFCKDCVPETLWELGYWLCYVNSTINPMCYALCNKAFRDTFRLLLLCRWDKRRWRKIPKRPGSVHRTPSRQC

[1] = system: OPC (oligodendrocyte precursor cell); assay: OPC Cell Activity; assay type: cell-based
[2] = system: Rat primary optic nerve oligodendrocyte progenitor cells (OPCs); assay: OPC differentiation assay (MBP staining); assay type: cell-based; details: 6 days

Molecule	In vitro M1 (Conc) (muscarinic M1 receptor)	OPC Cell Activity ([1]; Table 1, in words)	other results
CCN(CC)CC1CCCCN1CC(=O)N1c2ccccc2C(=O)Nc2cccnc21 (stereo not shown) [AF-DX 116]	417 nM		
O=C(O[C@H]1C[N+]2(CCCOc3ccccc3)CCC1CC2)C(O)(c1cccs1)c1cccs1 [Aclidinium bromide]	0.10 nM		
CC(CN(C)C)CN1c2ccccc2Sc2ccccc21 (stereo not shown) [Alimemazine]	398 nM		
CN1[C@@H]2CC[C@H]1C[C@@H](OC(=O)C(CO)c1ccccc1)C2 (stereo partly shown) [Atropine]			OPC Cell Activity ([1]; Table 1): 5700 nM
CN1CCCC(n2nc(Cc3ccc(Cl)cc3)c3ccccc3c2=O)CC1 (stereo not shown) [Azelastine]	4,200 nM		
CN1[C@@H]2CC[C@H]1C[C@@H](OC(c1ccccc1)c1ccccc1)C2 [Benztropine]			OPC Cell Activity ([1]; Table 1): 170 to 350 nM
C[N+]1(C)CCCCC1COC(=O)C(O)(c1ccccc1)c1ccccc1 (stereo not shown) [Bevonium]		Active	
OC(CCN1CCCCC1)(c1ccccc1)C1CC2C=CC1C2 (stereo not shown) [Biperiden]	0.85 nM		
CN(C)CCOC(c1ccc(Cl)cc1)c1ccccn1 (stereo not shown) [Carbinoxamine]	740 nM		
CN(C)CCCN1c2ccccc2Sc2ccc(Cl)cc21 [Chlorpromazine]		Active	
Clc1ccc(Cn2c(CN3CCCC3)nc3ccccc32)cc1 [Clemizole]			OPC Cell Activity ([1]; Table 2, in words): Active
NC(=NCc1ccc(Cl)cc1)SCCCc1cnc[nH]1 [Clobenpropit]			OPC Cell Activity ([1]; Table 2): 125 nM
CC(CN(C)C)CN1c2ccccc2Sc2ccc(C#N)cc21 (stereo not shown) [Cyamemazine]	11 nM		
NC(=O)C(c1ccccc1)(c1ccccc1)[C@@H]1CCN(CCc2ccc3c(c2)CCO3)C1 [Darifenacin]		Active	
CC(C1=C(CCN(C)C)Cc2ccccc21)c1ccccn1 (stereo not shown) [Dimetindene]	320 nM		
CN1CCC(OC(c2ccccc2)c2ccccc2)CC1 [Diphenylpyraline]		Active	
CN(C)CCC[C@@]1(c2ccc(F)cc2)OCc2cc(C#N)ccc21 [Escitalopram]		Active	
O=C1CCCN1c1ccc(Oc2ccc3c(c2)CCN(C2CCC2)CC3)nc1 [GSK-239512]			OPC Cell Activity ([1]; Table 2): 120 to 160 nM
c1cc2c(cc1-c1noc(CC3CCN(C4CCC4)CC3)n1)OCO2 [GSK-247246]			OPC Cell Activity ([1]; Table 2): 25 to 100 nM
C[N+]1(C)CCC(OC(=O)C(O)(c2ccccc2)C2CCCC2)C1 (stereo not shown) [Glycopyrronium bromide]	0.42 nM		
CN1CCCN(C(c2ccccc2)c2ccc(Cl)cc2)CC1 (stereo not shown) [Homochlorcyclizine]	22 nM		
OCCOCCN1CCN(C(c2ccccc2)c2ccc(Cl)cc2)CC1 (stereo not shown) [Hydroxyzine]	3,800 nM	Active	
CN1[C@@H]2CC[C@H]1C[C@@H](OC(=O)[C@H](CO)c1ccccc1)C2 [Hyoscyamine]		Active	
CC(C)[N+]1(C)[C@@H]2CC[C@H]1C[C@@H](OC(=O)C(CO)c1ccccc1)C2 (stereo partly shown) [Ipratropium]	1.31 nM	Active	
C[C@@H]1CCCN1CCCOc1ccc(-c2ccc(=O)[nH]n2)cc1 [Irdabisant]			OPC Cell Activity ([1]; Table 2): 250 nM
CC(CN1c2ccccc2Sc2cccnc21)N(C)C (stereo not shown) [Isothipendyl]	74 nM		

Molecule	In vitro M1 (Conc) (muscarinic M1 receptor)	OPC Cell Activity ([1]; Table 1, in words)	other results
CN(CCCN1c2ccccc2CCc2ccccc21)CC(=O)c1ccc(Cl)cc1 [Lofepramine]	67 nM		
CN1CCc2c(c3ccccc3n2Cc2ccccc2)C1 [Mebhydrolin]	180 nM		
C[N+]1(C)CCCC(OC(=O)C(O)(c2ccccc2)c2ccccc2)C1 (stereo not shown) [Mepenzolate]	27 nM	Active	
c1ccc2c(c1)Sc1ccccc1N2CC1CN2CCC1CC2 (stereo not shown) [Mequitazine]	5.0 nM		
CN1CCCCC1CCN1c2ccccc2Sc2ccc([S+](C)[O-])cc21 (stereo not shown) [Mesoridazine]	10 nM		
C[N+]1(C)[C@@H]2CC[C@H]1C[C@@H](OC(=O)C(CO)c1ccccc1)C2 (stereo partly shown) [Methylatropine]		Active	
CCCC(CCC)C(=O)O[C@H]1C[C@H]2CC[C@@H](C1)[N+]2(C)C [Octatropine methylbromide]		Active	
CCCCCCCCOc1ccccc1C(=O)Nc1ccc(C(=O)OCC[N+](C)(CC)CC)cc1 [Octylonium bromide]	2 nM	Active	
CCN(CC)CC#CCOC(=O)C(O)(c1ccccc1)C1CCCCC1 (stereo not shown) [Oxybutynin]			OPC Cell Activity ([1]; Table 1): 670 nM
CCN(CC)CCOCCOC(=O)C1(c2ccccc2)CCCC1 [Pentoxyverine, carbetapentane, Pentoxyverine]	13 to 76 nM		OPC Cell Activity ([1]; Table 1): 260 nM
CCN1CCCC(OC(=O)C(c2ccccc2)c2ccccc2)C1 (stereo not shown) [Piperidolate]		Active	
Clc1ccc(CCCOCCCN2CCCCC2)cc1 [Pitolisant (tiprolisant), Pitolisant]			OPC Cell Activity ([1]; Table 2): 14 to 100 nM; dose sparing activity with respect to the other agent ([2]; clemastine fumarate 0 to 5 μM combined with pitolisant hydrochloride 0 to 2 μM): dose sparing activity; OPC differentiation (% of MBP+ cells) ([2]; pitolisant hydrochloride alone, 0 to 2 μM): induce OPC differentiation
CCCNCC(O)COc1ccccc1C(=O)CCc1ccccc1 (stereo not shown) [Propafenone]		Active	
CC(C)[N+](C)(CCOC(=O)C1c2ccccc2Oc2ccccc21)C(C)C [Propantheline]	0.22 nM		OPC Cell Activity ([1]; Table 1): 1250 to 2950 nM
CCCOC(C(=O)OC1CCN(C)CC1)(c1ccccc1)c1ccccc1 [Propiverine]	619 nM		OPC Cell Activity ([1]; Table 1): 420 nM
OCCOCCN1CCN(C2=Nc3ccccc3Sc3ccccc32)CC1 [Quetiapine]		Active	
CN1[C@@H]2C[C@@H](OC(=O)[C@H](CO)c3ccccc3)C[C@H]1[C@@H]1O[C@@H]12 [Scopolamine]			OPC Cell Activity ([1]; Table 1): 5100 nM
O=C(O[C@H]1CN2CCC1CC2)N1CCc2ccccc2[C@@H]1c1ccccc1 [Solifenacin]	25 nM	Active	
C[N+]1(C)[C@@H]2C[C@@H](OC(=O)C(O)(c3cccs3)c3cccs3)C[C@H]1[C@@H]1O[C@@H]12 [Tiotropium bromide]	0.13 nM	Active	
Cc1ccc(O)c([C@H](CCN(C(C)C)C(C)C)c2ccccc2)c1 [Tolterodine]	190 nM		
OC(CCN1CCCCC1)(c1ccccc1)C1CCCCC1 (stereo not shown) [Trihexyphenidyl]		Active	
CN(C)CCN(Cc1ccccc1)c1ccccn1 [Tripelennamine]	1,3000 nM	Active	
Cc1ccc(/C(=C\CN2CCCC2)c2ccccn2)cc1 [Triprolidine]	15000 nM		
O=C(CCNS(=O)(=O)c1cccc2nsnc12)N1CCN(c2ccncc2)CC1 [VU0409774]	690 nM		
Cc1noc(C)c1S(=O)(=O)N1CCN(c2ccc(N3CCCC(C)(C)C3)nn2)CC1 [VU6009833]	288 nM		
Aminobenzotropine		Active	
